Legend:
BRAPP = experiment: Postemergence foliar-applied greenhouse weed control, BRAPP; format: in vivo, Brachiaria platyphylla (Griseb.) Nash; settings: 22 DAA
From the text: (§1) Seeds or nutlets of the desired test plant species were planted in a soil matrix prepared by mixing a loam or sandy loam soil (e.g., 28.6 percent silt, 18.8 percent clay, and 52.6 percent sand, with a pH of about 5.8 and an organic matter content of about 1.8 percent) and calcareous grit in an 80 to 20 ratio. The soil matrix was contained in plastic pots with a volume of 1 quart and a surface area of 83.6 square centimeters (cm^2). When required to ensure good germination and healthy plants, a fungicide treatment and/or other chemical or physical treatment was applied. The plants were grown for 8-22 days in a greenhouse with an approximate 14 h photoperiod which was maintained at about 29° C. during the day and 26° C. during the night. Nutrients (Peters Excel® 15-5-15 5-Ca 2-Mg and iron chelate) were applied in the irrigation solution as needed and water was added on a regular basis. Supplemental lighting was provided with overhead metal halide 1000-Watt lamps as necessary. The plants were employed for testing when they reached the first through fourth true leaf stage.
(§2) Treatments consisted of the acid or esters of 4-amino-3-chloro-5-fluoro-6-(4-chloro-2-fluoro-3-methoxy-phenyl) pyridine-2-carboxylic acid (Compound A), each formulated as an SC (suspension concentrate), and various herbicidal components alone and in combination. Forms of compound A were applied on an acid equivalent basis.
(§3) Other herbicidal components were applied on an active ingredient basis and included auxin transport inhibiting (ATI) herbicides chlorflurenol (technical material), chlorflurenol-methyl (technical material), diflufenzopyr (technical material), diflufenzopyr sodium (technical material), flurenol-methyl (technical material) and naptalam (technical material).
(§4) Treatment requirements were calculated based upon the rates being tested, the concentration of active ingredient or acid equivalent in the formulation, and a 12 mL application volume at a rate of 187 L/ha.
(§5) For treatments comprised of formulated and technical compounds, weighed amounts of the technical materials were placed individually in 25 mL glass vials and dissolved in a volume of 97:3 v/v acetone/DMSO to obtain 12× stock solutions, and measured amounts of the formulated compounds were placed individually in 25 mL glass vials and diluted in a volume of 1.5% (v/v) crop oil concentrate or water to obtain 12× stock solutions. […] Application solutions were prepared by adding an appropriate amount of each stock solution (e.g., 1 mL) and diluted to the appropriate final concentrations with the addition of an appropriate amount of an aqueous mixture of 1.5% (v/v) crop oil concentrate so that the final spray solutions contained 1.25% (v/v) crop oil concentrate. When required, additional water and/or 97:3 v/v acetone/DMSO was added to individual application solutions so that the final acetone and DMSO concentrations of the application solutions being compared were 8.1% and 0.25%, respectively.
(§6) All stock solutions and applications solutions were visually inspected for compound compatibility prior to application. Spray solutions were applied to the plant material with an overhead Mandel track sprayer equipped with an 8002E nozzle calibrated to deliver 187 L/ha over an application area of 0.503 m^2 at a spray height of 18 to 20 inches (46 to 50 cm) above average plant canopy height. Control plants were sprayed in the same manner with the solvent blank.
(§7) The treated plants and control plants were placed in a greenhouse as described above and watered by sub-irrigation to prevent wash-off of the test compounds. After approximately 3 weeks, the condition of the test plants as compared with that of the untreated plants was determined visually and scored on a scale of 0 to 100 percent where 0 corresponds to no injury or growth inhibition and 100 corresponds to complete kill. […]

CYPRO = experiment: In-water applied (paddy) greenhouse weed control, CYPRO; format: in vivo, Cyperus rotundus L.; settings: 19 DAA
Method: (§8) Weed seeds or nutlets of the desired test plant species were planted in puddled soil (mud) prepared by mixing a shredded, non-sterilized mineral soil (50.5 percent silt, 25.5 percent clay, and 24 percent sand, with a pH of about 7.6 and an organic matter content of about 2.9 percent) and water at a 1:1 volumetric ratio. The prepared mud was dispensed in 365 mL aliquots into 16-ounce (oz.) non-perforated plastic pots with a surface area of 86.59 square centimeters (cm^2) leaving a headspace of 3 centimeters (cm) in each pot. Mud was allowed to dry overnight prior to planting or transplanting. Rice seeds were planted in Sun Gro MetroMix® 306 planting mixture, which typically has a pH of 6.0 to 6.8 and an organic matter content of about 30 percent, in plastic plug trays. Seedlings at the second or third leaf stage of growth were transplanted into 840 mL of mud contained in 32-oz. non-perforated plastic pots with a surface area of 86.59 cm^2 4 days prior to herbicide application. The paddy was created by filling the headspace of the pots with 2.5 to 3 cm of water. When required to ensure good germination and healthy plants, a fungicide treatment and/or other chemical or physical treatment was applied. The plants were grown for 4-22 days in a greenhouse with an approximate 14 h photoperiod which was maintained at about 29′C during the day and 26° C. during the night. Nutrients were added as Osmocote® (19:6:12, N:P:K+minor nutrients) at 2 g per 16-oz. pot and 4 g per 960-mL 32-oz. pot. Water was added on a regular basis to maintain the paddy flood, and supplemental lighting was provided with overhead metal halide 1000-Watt lamps as necessary. The plants were employed for testing when they reached the second or third true leaf stage.
(§9) Treatments consisted of the acid or esters of 4-amino-3-chloro-5-fluoro-6-(4-chloro-2-fluoro-3-methoxy-phenyl)pyridine-2-carboxylic acid (compound A) each formulated as an SC and various herbicidal components alone and in combination. Forms of compound A were applied on an acid equivalent basis.
(§10) Other herbicidal components were applied on an active ingredient basis and included auxin transport inhibiting (ATI) herbicides chlorflurenol-methyl (technical material), chlorflurenol (technical material), diflufenzopyr (technical material), dilfufenzopyr sodium (technical material), flurenol-methyl (technical material,) and naptalam (technical material).
(§11) Treatment requirements for each compound or herbicidal component were calculated based upon the rates being tested, the concentration of active ingredient or acid equivalent in the formulation, an application volume of 2 mL per component per pot, and an application area of 86.59 cm^2 per pot.
(§12) For formulated compounds, a measured amount was placed in an individual 100 or 200 mL glass vial and was dissolved in a volume of 1.25% (v/v) Agri-Dex® crop oil concentrate to obtain application solutions.
(§13) For technical grade compounds, a weighed amount was placed in an individual 100 to 200 mL glass vial and was dissolved in a volume of acetone to obtain concentrated stock solutions. […] The concentrated stock solutions obtained were diluted with an equivalent volume of an aqueous mixture containing 2.5% (v/v) crop oil concentrate so that the final application solutions contained 1.25% (v/v) crop oil concentrate.
(§14) Applications were made by injecting with a pipetter appropriate amounts of the application solutions, individually and sequentially, into the aqueous layer of the paddy. Control plants were treated in the same manner with the solvent blank. Applications were made so that all treated plant material received the same concentrations of acetone and crop oil concentrate.
(§15) The treated plants and control plants were placed in a greenhouse as described above and water was added as needed to maintain a paddy flood. […]

ECHCG [1] = experiment: In-water applied (paddy) greenhouse weed control, ECHCG; format: in vivo, Echinochloa crusgalli (L.) Beauv.
Method: as §8, §9, §10, §11, §12, §13, §14, §15

CYPIR = experiment: Postemergence foliar-applied greenhouse weed control, CYPIR; format: in vivo, Cyperus iria L.
From the text: as §1, §2, §3, §4, §5, §6, §7

FIMMI = experiment: In-water applied (paddy) greenhouse weed control, FIMMI; format: in vivo, Fimbristylis miliacea (L.) Vahl; settings: 19 DAA
Method: as §8, §9, §10, §11, §12, §13, §14, §15

SCPMA = experiment: In-water applied (paddy) greenhouse weed control, SCPMA; format: in vivo
Method: as §8, §9, §10, §11, §12, §13, §14, §15

ECHOR = experiment: In-water applied (paddy) greenhouse weed control, ECHOR; format: in vivo, Echinochloa oryzoides (Ard.) Fritsch
Method: as §8, §9, §10, §11, §12, §13, §14, §15

ECHCG [2] = experiment: Postemergence foliar-applied greenhouse weed control, ECHCG; format: in vivo, Echinochloa crusgalli (L.) Beauv.; settings: 20 DAA
From the text: as §1, §2, §3, §4, §5, §6, §7

LEFCH [3] = experiment: In-water applied (paddy) greenhouse weed control, LEFCH; format: in vivo, Leptochloa chinensis (L.) Nees; settings: 20 DAA
Method: as §8, §9, §10, §11, §12, §13, §14, §15

ECHCO = experiment: Postemergence foliar-applied greenhouse weed control, ECHCO; format: in vivo, Echinochloa colona (L.) Link; settings: 20 DAA
From the text: as §1, §2, §3, §4, §5, §6, §7

IPOHE = experiment: Postemergence foliar-applied greenhouse weed control, IPOHE; format: in vivo, Ipomoea hederacea Jacq.; settings: 20 DAA
From the text: as §1, §2, §3, §4, §5, §6, §7

DIGSA = experiment: Postemergence foliar-applied greenhouse weed control, DIGSA; format: in vivo, Digitaria sanguinalis (L.) Scop.; settings: 20 DAA
From the text: as §1, §2, §3, §4, §5, §6, §7

LEFCH [4] = experiment: Postemergence foliar-applied greenhouse weed control, LEFCH; format: in vivo, Leptochloa chinensis (L.) Nees; settings: 20 DAA
From the text: as §1, §2, §3, §4, §5, §6, §7

## COC(=O)C1(O)c2ccccc2-c2ccccc21 [Flurenol-methyl]
BRAPP; 68.75 gai/ha
  Visual Weed Control (%) Obs: 0%
BRAPP; 137.5 gai/ha
  Visual Weed Control (%) Obs: 0%
BRAPP; 275 gai/ha
  Visual Weed Control (%) Obs: 30%
CYPRO; 68.75 gai/ha
  Visual Weed Control (%) Obs: 0%
CYPRO; 137.5 gai/ha
  Visual Weed Control (%) Obs: 0%
ECHCG [1]; 19 DAA, 68.75 gai/ha
  Visual Weed Control (%) Obs: 0%
ECHCG [1]; 19 DAA, 137.5 gai/ha
  Visual Weed Control (%) Obs: 0%
ECHCG [1]; 19 DAA, 275 gai/ha
  Visual Weed Control (%) Obs: 0%
CYPIR; 22 DAA, 68.75 gai/ha
  Visual Weed Control (%) Obs: 0%
CYPIR; 22 DAA, 137.5 gai/ha
  Visual Weed Control (%) Obs: 0%
CYPIR; 22 DAA, 275 gai/ha
  Visual Weed Control (%) Obs: 60%
FIMMI; 68.75 gai/ha
  Visual Weed Control (%) Obs: 0%
FIMMI; 137.5 gai/ha
  Visual Weed Control (%) Obs: 0%
FIMMI; 275 gai/ha
  Visual Weed Control (%) Obs: 20%

## O=C(O)C1(O)c2ccccc2-c2ccc(Cl)cc21 (stereo not shown) [Chlorflurenol, reference compound]
SCPMA; 22 DAA, 275 gai/ha
  Visual Weed Control (%) Obs: 45%
SCPMA; 22 DAA, 550 gai/ha
  Visual Weed Control (%) Obs: 60%
ECHOR; 22 DAA, 550 gai/ha
  Visual Weed Control (%) Obs: 30%
ECHCG [1]; 22 DAA, 275 gai/ha
  Visual Weed Control (%) Obs: 10%

## COC(=O)C1(O)c2ccccc2-c2ccc(Cl)cc21 (stereo not shown) [Chlorflurenol-Methyl, methyl 2-chloro-9-hydroxy-9H-fluorene-9-carboxylate, reference compound]
ECHCG [2]; 68.75 gai/ha
  Visual Weed Control (%) Obs: 0%
ECHCG [2]; 137.5 gai/ha
  Visual Weed Control (%) Obs: 0%
ECHCG [2]; 275 gai/ha
  Visual Weed Control (%) Obs: 0%
SCPMA; 20 DAA, 275 gai/ha
  Visual Weed Control (%) Obs: 75%
SCPMA; 20 DAA, 550 gai/ha
  Visual Weed Control (%) Obs: 80%
LEFCH [3]; 275 gai/ha
  Visual Weed Control (%) Obs: 0%
LEFCH [3]; 550 gai/ha
  Visual Weed Control (%) Obs: 0%
ECHCO; 68.75 gai/ha
  Visual Weed Control (%) Obs: 0%
ECHCO; 137.5 gai/ha
  Visual Weed Control (%) Obs: 0%
ECHCO; 275 gai/ha
  Visual Weed Control (%) Obs: 0%
IPOHE; 137.5 gai/ha
  Visual Weed Control (%) Obs: 50%
IPOHE; 275 gai/ha
  Visual Weed Control (%) Obs: 55%
DIGSA; 68.75 gai/ha
  Visual Weed Control (%) Obs: 0%
DIGSA; 137.5 gai/ha
  Visual Weed Control (%) Obs: 0%
DIGSA; 275 gai/ha
  Visual Weed Control (%) Obs: 0%
ECHOR; 20 DAA, 275 gai/ha
  Visual Weed Control (%) Obs: 20%
ECHOR; 20 DAA, 550 gai/ha
  Visual Weed Control (%) Obs: 10%
ECHCG [1]; 20 DAA, 275 gai/ha
  Visual Weed Control (%) Obs: 15%
ECHCG [1]; 20 DAA, 550 gai/ha
  Visual Weed Control (%) Obs: 20%
LEFCH [4]; 68.75 gai/ha
  Visual Weed Control (%) Obs: 0%
LEFCH [4]; 137.5 gai/ha
  Visual Weed Control (%) Obs: 10%
LEFCH [4]; 275 gai/ha
  Visual Weed Control (%) Obs: 10%
CYPIR; 20 DAA, 68.75 gai/ha
  Visual Weed Control (%) Obs: 0%
CYPIR; 20 DAA, 137.5 gai/ha
  Visual Weed Control (%) Obs: 0%
CYPIR; 20 DAA, 275 gai/ha
  Visual Weed Control (%) Obs: 0%
